Test results published in patent US5668182A, “Method of calming or sedating an animal with a hydroxy benzaldehyde compound” (priority 1996, dated 1997).

Key:
rats = experiment: Behavioral depression in rats after i.v. infusion (Example 1); format: in vivo; conditions: for Grip Absent (number of rats): first figure of cell; for Grip Weak (number of rats): second figure of cell
Protocol: To assess behavioral depression in rats as induced by vanillin, male and female rats, five of each gender at each dose, were given doses of vanillin of 50, 100 or 200 mg/kg, respectively, or a control vehicle (0.9% sodium chloride in water) by intravenous (i.v.) infusion. Therefore, there were four groups of rats with ten rats per group tested at each dosage. The solution was infused into a tail vein through a butterfly cannula, with the infusion being performed at a constant rate over a 5-minute period using a Harvard infusion pump.
The evaluations were performed on days 1, 3, 5 and 9 of vanillin administration.

mice = experiment: Pentobarbital-induced loss of righting reflex ("sleep") in mice (Example 2); format: in vivo
Protocol: The depressant effect of vanillin on mice was investigated by examining the effect of vanillin on pentobarbital-induced loss of righting reflex. Groups of mice (six to fourteen mice per group) were designated to receive a dose of vanillin of 50, 100, 200 or 300 mg/kg, or a control vehicle (0.9% sodium chloride in water). Fifty (50) mg/kg I.p. (intraperitoneally)injected pentobarbital was administered to each mouse of each group, and each mouse was also concurrently given the dose of vanillin (50, 100, 200 or 300 mg/kg) or the control vehicle, depending on its grouping, by s.c. (subcutaneous) injection.
The effects of vanillin on the onset and duration of "sleep" induced by the pentobarbital were observed. […] Means and standard errors of values for onset and duration of "sleep" were determined for each experimental group. Each vanillin-treated group was compared with its concomitantly tested control group (treated with saline in lieu of vanillin) for evaluating the statistical significance of vanillin effect.

[1] = 50 mg/kg i.v., day 1, <2 min, 10 rats per group
[2] = highest dose (200 mg/kg i.v.), day 1
[3] = highest dose (200 mg/kg i.v.), days 5 and 9

COc1cc(C=O)ccc1O [vanillin, 4-hydroxy-3-methoxybenzaldehyde]
Ambulation Absent (number of rats) (rats; 50 mg/kg i.v., day 1, 10 min): 0
Sign of depression: Score > 0 (number of rats) (rats; 50 mg/kg i.v., day 1, 10 min, 10 rats per group): 0
Grip Absent (number of rats) (rats; 50 mg/kg i.v., day 1, 10 min): 0
Grip Weak (number of rats) (rats; 50 mg/kg i.v., day 1, 10 min): 0
Ambulation Absent (number of rats) (rats; 50 mg/kg i.v., day 1, 20 min): 0
Sign of depression: Score > 0 (number of rats) (rats; 50 mg/kg i.v., day 1, 20 min, 10 rats per group): 0
Grip Absent (number of rats) (rats; 50 mg/kg i.v., day 1, 20 min): 0
Grip Weak (number of rats) (rats; 50 mg/kg i.v., day 1, 20 min): 0
Ambulation Absent (number of rats) (rats; 50 mg/kg i.v., day 1, 30 min): 0
Sign of depression: Score > 0 (number of rats) (rats; 50 mg/kg i.v., day 1, 30 min, 10 rats per group): 0
Grip Absent (number of rats) (rats; 50 mg/kg i.v., day 1, 30 min): 0
Grip Weak (number of rats) (rats; 50 mg/kg i.v., day 1, 30 min): 0
Ambulation Absent (number of rats) (rats; 50 mg/kg i.v., day 1, 45 min): 0
Sign of depression: Score > 0 (number of rats) (rats; 50 mg/kg i.v., day 1, 45 min, 10 rats per group): 0
Grip Absent (number of rats) (rats; 50 mg/kg i.v., day 1, 45 min): 0
Grip Weak (number of rats) (rats; 50 mg/kg i.v., day 1, 45 min): 0
Ambulation Absent (number of rats) (rats; [1]): 0
Grip Absent (number of rats) (rats; [1]): 0
Grip Weak (number of rats) (rats; [1]): 1
Sign of depression: Score > 0 (number of rats) (rats; 50 mg/kg i.v., day 1, <2 min after treatment, 10 rats per group): 0
Ambulation Absent (number of rats) (rats; 100 mg/kg i.v., day 1, 10 min): 0
Sign of depression: Score > 0 (number of rats) (rats; 100 mg/kg i.v., day 1, 10 min, 10 rats per group): 0
Grip Absent (number of rats) (rats; 100 mg/kg i.v., day 1, 10 min): 0
Grip Weak (number of rats) (rats; 100 mg/kg i.v., day 1, 10 min): 2
Ambulation Absent (number of rats) (rats; 100 mg/kg i.v., day 1, 20 min): 0
Sign of depression: Score > 0 (number of rats) (rats; 100 mg/kg i.v., day 1, 20 min, 10 rats per group): 0
Grip Absent (number of rats) (rats; 100 mg/kg i.v., day 1, 20 min): 0
Grip Weak (number of rats) (rats; 100 mg/kg i.v., day 1, 20 min): 0
Ambulation Absent (number of rats) (rats; 100 mg/kg i.v., day 1, 30 min): 0
Sign of depression: Score > 0 (number of rats) (rats; 100 mg/kg i.v., day 1, 30 min, 10 rats per group): 0
Grip Absent (number of rats) (rats; 100 mg/kg i.v., day 1, 30 min): 0
Grip Weak (number of rats) (rats; 100 mg/kg i.v., day 1, 30 min): 0
Ambulation Absent (number of rats) (rats; 100 mg/kg i.v., day 1, 45 min): 0
Sign of depression: Score > 0 (number of rats) (rats; 100 mg/kg i.v., day 1, 45 min, 10 rats per group): 0
Grip Absent (number of rats) (rats; 100 mg/kg i.v., day 1, 45 min): 0
Grip Weak (number of rats) (rats; 100 mg/kg i.v., day 1, 45 min): 0
Ambulation Absent (number of rats) (rats; 100 mg/kg i.v., day 1, <2 min): 0
Grip Absent (number of rats) (rats; 100 mg/kg i.v., day 1, <2 min): 0
Grip Weak (number of rats) (rats; 100 mg/kg i.v., day 1, <2 min): 6
Sign of depression: Score > 0 (number of rats) (rats; 100 mg/kg i.v., day 1, <2 min after treatment, 10 rats per group): 0
Ambulation Absent (number of rats) (rats; 200 mg/kg i.v., day 1, 10 min): 0
Sign of depression: Score > 0 (number of rats) (rats; 200 mg/kg i.v., day 1, 10 min, 10 rats per group): 0
Grip Absent (number of rats) (rats; 200 mg/kg i.v., day 1, 10 min): 0
Grip Weak (number of rats) (rats; 200 mg/kg i.v., day 1, 10 min): 8
Ambulation Absent (number of rats) (rats; 200 mg/kg i.v., day 1, 20 min): 0
Sign of depression: Score > 0 (number of rats) (rats; 200 mg/kg i.v., day 1, 20 min, 10 rats per group): 0
Grip Absent (number of rats) (rats; 200 mg/kg i.v., day 1, 20 min): 0
Grip Weak (number of rats) (rats; 200 mg/kg i.v., day 1, 20 min): 8
Ambulation Absent (number of rats) (rats; 200 mg/kg i.v., day 1, 30 min): 0
Sign of depression: Score > 0 (number of rats) (rats; 200 mg/kg i.v., day 1, 30 min, 10 rats per group): 0
Grip Absent (number of rats) (rats; 200 mg/kg i.v., day 1, 30 min): 0
Grip Weak (number of rats) (rats; 200 mg/kg i.v., day 1, 30 min): 5
Ambulation Absent (number of rats) (rats; 200 mg/kg i.v., day 1, 45 min): 0
Sign of depression: Score > 0 (number of rats) (rats; 200 mg/kg i.v., day 1, 45 min, 10 rats per group): 0
Grip Absent (number of rats) (rats; 200 mg/kg i.v., day 1, 45 min): 0
Grip Weak (number of rats) (rats; 200 mg/kg i.v., day 1, 45 min): 2
Ambulation Absent (number of rats) (rats; 200 mg/kg i.v., day 1, <2 min): 5
Grip Absent (number of rats) (rats; 200 mg/kg i.v., day 1, <2 min): 10
Grip Weak (number of rats) (rats; 200 mg/kg i.v., day 1, <2 min): 10
Sign of depression: Score > 0 (number of rats) (rats; 200 mg/kg i.v., day 1, <2 min after treatment, 10 rats per group): 3
rats rated with depression scores above zero (rats; days 5 and 9): no rats
time for diminished grip to return to normal (rats; days 5 and 9, almost all rats with diminished grip): ≤ 20 min
tolerance to depressant effects (rats; days 5 and 9, i.v.): some suggestion of tolerance
effect on grip strength (rats; [2]): obliterated
persistence of slight effect on grip strength (rats; [2]): ≥ 45 min
rats displaying absence of grip (rats; [3]): 4 of 10
rats exhibiting no muscular or motor impairment at all (rats; [3]): 1
time for return of ability to walk (rats; i.v., highest dose 200 mg/kg, day 1, some of the rats): less than 10 minutes
persistence of eye closure (rats; intermediate and high dose groups i.v., several rats): up to 45 minutes
time to appearance of eye closure (rats; intermediate and high dose groups i.v., several rats, typically): ≤ 10 min
effect on grip strength (rats; intermediate dose (100 mg/kg i.v.), day 1): weakened in most rats
effects on righting reflex and on motor coordination (rats; vanillin given alone, rats): mild and transient
duration of loss of righting reflex (mice; 100 to 300 mg/kg along with pentobarbital): markedly increased and enhanced
effect on barbituate-induced loss of righting reflex (mice; lower dose, 50 mg/kg): appeared to lessen the barbituate effect
Duration of "Sleep" (mean + SEM) (mice; vanillin 50 mg/kg s.c. + pentobarbital 50 mg/kg i.p., * p<0.05 vs control (vehicle 31.0 ± 3.79)): 20.3 ± 1.09 min
Duration of "Sleep" (mean + SEM) (mice; vanillin 100 mg/kg s.c. + pentobarbital 50 mg/kg i.p. (vehicle 36.5 ± 4.67)): 47.6 ± 4.48 min
Onset of "sleep" (mean + SEM) (mice; vanillin 200 mg/kg s.c. + pentobarbital 50 mg/kg i.p. (vehicle 3.5 ± 0.87)): 2.8 ± 0.97 min
Duration of "Sleep" (mean + SEM) (mice; vanillin 200 mg/kg s.c. + pentobarbital 50 mg/kg i.p., ** p<0.001 vs control (vehicle 27.4 ± 3.34)): 62.9 ± 5.05 min
Onset of "sleep" (mean + SEM) (mice; vanillin 300 mg/kg s.c. + pentobarbital 50 mg/kg i.p. (vehicle 4.3 ± 0.97)): 3.3 ± 0.23 min
Duration of "Sleep" (mean + SEM) (mice; vanillin 300 mg/kg s.c. + pentobarbital 50 mg/kg i.p., ** p<0.001 vs control (vehicle 39.6 ± 6.57)): 102.1 ± 5.71 min
